Measured values published in patent publication US20260061042A1, “POLYNUCLEOTIDE COMPOSITIONS AND USES THEREOF” (Pfizer Inc., priority 2024, published 2026).
Where two headings read alike, the source gives them in different places.

Columns and labels:
[1] = target: T1, E. coli CFT073 PapG-II lectin domain PapGLD variant N96S G86A, SEQ ID NO: 14 (Escherichia coli, UniProt A0A0H2VAQ6, G106A/N116S); experiment: PapG Luminex ligand binding at equilibrium; conditions: HEPES pH 7.4, 4° C. overnight
T1 sequence (A0A0H2VAQ6 with tags, fused parts or gaps G106A/N116S): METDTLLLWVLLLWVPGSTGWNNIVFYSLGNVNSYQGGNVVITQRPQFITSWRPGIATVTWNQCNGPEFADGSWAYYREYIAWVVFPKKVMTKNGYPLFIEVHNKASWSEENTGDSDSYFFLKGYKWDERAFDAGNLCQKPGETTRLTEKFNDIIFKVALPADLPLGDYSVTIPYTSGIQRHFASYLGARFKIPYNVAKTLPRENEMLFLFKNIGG
Protocol: (§1) To determine the ability of PapGLD mutants to bind the porcine derived globotetraosyl ceramide ligand GalNAc-Gal-Gal-Glc-ceramide (GbO4), a Luminex ligand binding assay was developed. Surfactant Protein-A (SP-A) was coupled to the surface of MagPlex beads by EDC/NHS, to capture the lipid tail of the globotetraosyl ceramide. The Globotetraosyl ceramide/SP-A beads were incubated with an eight-point threefold titration of PapG in a 96 well flat bottom white plate with final volume of 100 microliters of 50 mM HEPES PH 7.4, 10 mM NaCl, 0.0005% Tween 20 shaking at 300 rpm, 4° C. overnight. After 20-24 hours the ligand binding plates were read on a FlexMap 3D plate reader for measurement of well-bead region specific MFI. Ligand binding equilibrium dissociation constants (Kd) were calculated assuming one site specific binding and interpolated using non-linear curve fitting (GraphPad Prism) as the ligand concentration needed to achieve half-maximal binding. The Luminex derived apparent Kd values are based on approximately fifty bead counts per assay sample.
(§2) To determine Luminex ligand binding affinities of PapG mutants for the synthetic globoside ligand Gal-Glc-phenoxy-octyl-amine (GbO2Mpo), a Luminex ligand binding assay was developed based on the direct coupling of the amine reactive globoside ligand to the EDC/NHS activated carboxylic surface of MagPlex beads. Synthesis of GbO2Mpo ligand with an octyl amine linker (for coupling to beads) was performed via methods described previously. The GbO2Mpo beads were incubated with an 8-point, threefold titration of PapG in a 96-well flat bottom white plate with final volume of 100 μl of 50 mM HEPES pH 7.4, 10 mM NaCl, 0.0005% Tween 20 shaking at 300 rpm, 4° C. overnight. After 20-24 hours the ligand binding plates were read on a FlexMap 3D plate reader for measurement of well-bead region specific MFI.
(§3) Binding of PapG proteins to GbO2 or GbO4 ligands was evaluated using a Luminex platform wherein ligands were coupled to MagPlex beads via surfactant protein A (for […]) or directly using […] conjugation (for […]). This assay was used to rank order binding affinities of the mutants, reported as Kd values interpolated from protein antigen titration curves (Table 7).

[2] = target: T2, E. coli CFT073 PapG-II lectin domain PapGLD N96S WT v2 (Escherichia coli, UniProt A0A0H2VDP3, N116S); experiment: PapG Luminex ligand binding at equilibrium; conditions: HEPES pH 7.4, 4° C. overnight
T2 sequence (A0A0H2VDP3 21-216 N116S): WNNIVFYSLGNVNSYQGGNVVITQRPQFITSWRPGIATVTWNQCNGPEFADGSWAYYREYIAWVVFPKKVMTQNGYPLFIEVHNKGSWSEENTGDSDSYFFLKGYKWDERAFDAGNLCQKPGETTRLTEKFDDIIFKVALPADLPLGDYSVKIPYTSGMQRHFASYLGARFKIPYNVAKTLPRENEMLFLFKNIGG
Protocol: as §1, §2, §3

[3] = GbO2Mpo beads, read-out: Kd (GbO2)
[4] = GbO4 beads, read-out: Kd (GbO4)

| Substance | Kd [1, 3] [nM] | Kd [2, 3] [nM] | Kd [1, 4] [nM] | Kd [2, 4] [nM] |
| --- | --- | --- | --- | --- |
| Gal-Glc-phenoxy-octyl-amine [GbO2] | 1.3 | 1.1 | – | – |
| GalNAc-Gal-Gal-Glc-ceramide [GbO4] | – | – | 15 | 29 |
